Test results published in US20230340012A1, “NATURAL AND SYNTHETIC COMPOUNDS FOR TREATING CANCER AND OTHER DISEASES” (PACIFIC ARROW LIMITED, priority 2009, published 2023).
Where two headings read alike, the source gives them in different places.

Experiments:
Erythrocytes (RBC) = experiment: The haemolytic assay; conditions: in words, no concentration given
cancer cells = experiment: Inhibition of cancer growth, cancer invasion, cell invasion or cancer cell invasion; type: cell-based
Text: The program is based on our purification methods and biological assays including the MTT assay. See International Application No. PCT/US05/31900, filed Sep. 7, 2005, U.S. Serial No. 11/289,142, filed Nov. 28, 2005, and U.S. Serial No. 11/131551, filed May 17, 2005, and PCT/US2008/002086, 1188-ALA-PCT, filed Feb. 15, 2008, 12/344,682, 1020-B1-US, filed Dec. 29, 2008. The details of Analysis of gene expression of ES2 cells after Y-treatment by Microarray, Data Analysis Methods and Western blot in PCT/US2008/002086, 1188-ALA-PCT, filed Feb. 15, 2008, and the cell invasion experiments methods in International Application PCT/US2010/0042240, filed Jul. 16, 2010.

H460 = experiment: MTT assay, lung (H460); type: cell-based, human; conditions: MTT
Experimental: (§1) Cells. HTB-9 (bladder), HeLa-S3 (cervix), DU145 (prostate), H460 (lung), MCF-7 (breast), K562 (leukemia), HCT116 (colon), HepG2 (liver), U2OS (bone), T98G (brain), SK-MEL-5 (Skin) and OVCAR 3, ES2 (ovary), Pancreas (Capan), Mouth (KB), Kidney(A498).
(§2) MTT Assay. The procedure for MTT assay followed the method described by Carmichael et al. (1987) with modifications. The cells were seeded into a 96-well plate at for 24 hours before drug-treatment. The cells were then exposed to the drugs for 48, 72, or 96 hours. After the drug-treatment, MTT (0.5 mg/mL) was added to cultures and incubated for an hour. The formazan (product of the reduction of tetrazolium by viable cells) formed and was dissolved with DMSO and the O.D. at 490 nm, and was measured by an ELISA reader. The MTT level of the cells before drug-treatment was also measured (T0). The % cell-growth (%G) is calculated as: %G = (TD-T0 / TC-T0) x 100(1), where TC or TD represents O.D. readings of control or drug-treated cells. When T0 > TD, then the cytotoxicity (LC) expressed as % of the control is calculated as: %LC = (TD-T0 / T0) × 100(2).
Methods: • A. Cells • -- H460 cells are derived from a Human Lung large cell carcinoma. Cells were grown in RPMI 1640 medium supplemented with 10% FCS, antibiotics and glutamine. 5000 cells were seeded in a well (96-welled plate) for one day before drug-treatment • B. Drug treatment: • -- Drug: Tig-S (stored as a 1000x stock solution in DMSO) was used. • -- Drug concentration used: from 0.15 - 20 ug/ml. • -- Drug-treatment was carried out for 1, 2 and 4 days. For the 4 days incubation, cells were fed with fresh medium (with drug) on day 2. • C. At the end of the drug-treatment, cytotoxic test was performed with MTT assay. Results: • 1. Tig-S inhibits H460 cells’ growth with the IC50 of drug 3 ug/ml. • 2. […] cells growth inhibition was observed beyond drug 5 ug/ml. • 3. No dead cell was found at drug concentration in 20 ug/ml.

MCF-7 = experiment: MTT assay, breast (MCF-7); type: cell-based, human
Experimental: as §1, §2

SK-Mel-5 = experiment: MTT assay, skin (SK-Mel-5); type: cell-based, human
Experimental: as §1, §2

DU145 = experiment: MTT assay, prostate (DU145); type: cell-based, human
Experimental: as §1, §2

ES2 cells = experiment: Inhibition of cell adhesion, ES2; type: cell-based, human
Experimental: (§3) Methods and Results. ES2 or Hey8A cells were plated in T25 flasks with medium containing 5 ug/ml of compounds selected from structure (2A) including E4A-Tig-R, E4A-Tig-V, E4A-Tig-S, E4A-Tig-N, E4A-Tig-Q, E4A-Tig-T. Cultures were incubated for 5 hours. Attached cells were removed from flasks by trypsinization and the numbers/amounts were counted. Compared to no drug controls, 80 ± 4% of ES2 cells and 60 ± 4% of Hey8A cells were found attached to flasks under this condition. At 5 ug/ml of above compounds, over 90% of unattached cells are alive as determined by the trypan Blue exclusion assay and by their ability to re-attach to flasks when plating in medium without tested compounds. However, with 10 ug/ml tested compounds, less than 40% of cells attached to flasks and many of them are dead cells.

K562 = experiment: MTT assay, leukemia (K562); type: cell-based, human
Experimental: as §1, §2

Hey8A cells = experiment: Inhibition of cell adhesion, Hey8A; type: cell-based; conditions: 5 ug/ml, 5 hours
Experimental: as §3

HepG2 = experiment: MTT assay, liver (HepG2); type: cell-based, human
Experimental: as §1, §2

HCT116 = experiment: MTT assay, colon (HCT116); type: cell-based, human
Experimental: as §1, §2

A498 = experiment: MTT assay, kidney (A498); type: cell-based, human
Experimental: as §1, §2

HeLa = experiment: MTT assay, cervix (HeLa); type: cell-based, human
Experimental: as §1, §2

HTB-9 = experiment: MTT assay, bladder (HTB-9); type: cell-based, human
Experimental: as §1, §2

OVCAR3 = experiment: MTT assay, ovary (OVCAR3); type: cell-based, human; conditions: MTT
Experimental: as §1, §2

T98G = experiment: MTT assay, brain (T98G); type: cell-based, human
Experimental: as §1, §2

U2OS = experiment: MTT assay, bone (U2OS); type: cell-based, human
Experimental: as §1, §2

Fibronectin = Fibronectin secretion experiment (Western blot); type: cell-based; conditions: bladder, cervix, prostate, lung, breast, leukemia, colon, liver, bone, brain, skin, ovary, pancreas, mouth, kidney cells; 24 hours
Experimental: Western blot is applied in this invention as a method to detect the specific proteins in treated and untreated cells with compounds in this invention, wherein the cells are bladder, cervix, prostate, lung, breast, leukemia, colon, liver, bone, brain, Skin, ovary, Pancreas(Capan), Mouth(KB), Kidney.
Cells: targeted cells were grown in RPMI 1640 medium. 1.5 million cells were seeded in a T25 flask and grown for 24 hours before drug-treatment.
Drug-treatment: Cells cultures were replaced with fresh RPMI medium containing either 2.5 ul of DMSO (as control) [D]; or 10, 20, 30, 40, 80 ug/ml of tested compounds.
After 24 hours, aliquot of culture medium was taken out for Fibronectin determination (Western blot method).
Cell viability at 24 hours was determined by MTT assay. Cultures were replaced with RPMI medium (5 ml) with MTT and incubated for an hour. The formation of formazan was dissolved in 10 ml of DMSO and OD at 570 nm was measured (MTT units). Western Blot: Spent culture medium was mixed with SDS sample buffer, boiled for 3 minutes before loading to SDS gel. Samples were applied to a 6-10% SDS gel and electrophoresis was conducted with 100 volts for 2 hours. Protein was transferred to a nitrocellulose membrane electrophoretically. The nitrocellulose blot was incubated with the first antibody and second antibody (AP conjugated, Promega S3721). The immuno-bands were developed with BCIP/NBT color development system.
Determination of Western blot band intensity: The band-images of Western blot were captured with a digital camera and the intensity of bands was determined using “Image J” software.

Capan = experiment: MTT assay, pancreas (Capan); type: cell-based, human
Experimental: as §1, §2
• A. Cells: Capan cells are derived from Human pancreas carcinoma (pancreas). Cells were grown in RPMI 1640 medium supplemented with 10% FCS, antibiotics and glutamine. 10000 cells were seeded in a well (96-welled plate) for one day before drug-treatment • B. Drug treatment: • -- Drug: Tig-S (stored as a 1000x stock solution in DMSO) was used. • -- Drug concentration used: from 0.15 - 20 ug/ml. • -- Drug-treatment was carried out for 3 days. • C. At the end of the drug-treatment, cytotoxic test was performed with MTT assay. The percentage of drug-treated cells’ growth as compared to those of the no drug control is determined.

ES2 = experiment: MTT assay, ovary (ES2); type: cell-based, human; conditions: MTT
Experimental: as §1, §2
Method: A. Cells • -WI38 is a Normal Lung fibroblast. Cells were grown in MEM medium supplemented with 10% FCS, antibiotics and glutamine. 20 K cells were seeded per well (96-welled plate) for one day before drug-treatment • -ES2 is an Ovary Clear cells carcinoma. Cells were grown in RPMI-1640 medium supplemented with 10% FCS, antibiotics and glutamine. 10 K cells were seeded per well (96-welled plate) for one day before drug-treatment.
B. Drug treatment: • -Drug: Tig-S. stored as 1000x stock solution in DMSO. • -Drug concentration used: from 0.15 - 20 ug/ml. • -Drug-treatment was carried out for 2 days (ES2) or 6 days (WI38). For the 6 days incubation, cells were fed with fresh medium (with drug) on day 3 and 5.
C. At the end of the drug-treatment, cytotoxic test was performed with MTT assay.

KB = experiment: MTT assay, mouth (KB); type: cell-based, human
Experimental: as §1, §2

Row | SMILES | hemolytic activity (Erythrocytes (RBC)) | anti-cancer activity (cancer cells) | inhibiting cancer growth, cancer invasion, cell invasion or cancer cell invasion (cancer cells) | IC50 of lung (H460) (H460) | IC50 of breast (MCF-7) (MCF-7) | IC50 of skin (SK-Mel-5) (SK-Mel-5) | IC50 of prostate (DU145) (DU145) | IC50 of leukemia (K562) (K562) | IC50 of liver (HepG2) (HepG2) | IC50 of colon (HCT116) (HCT116) | IC50 of kidney (A498) (A498) | IC50 of cervix (HeLa) (HeLa) | IC50 of bladder (HTB-9) (HTB-9) | IC50 of ovary (OVCAR3) (OVCAR3) | IC50 of brain (T98G) (T98G) | IC50 of bone (U2OS) (U2OS) | IC50 of pancreas (Capan) (Capan) | other results
1 | CC1(C)CC2C3=CCC4[C@@]5(C)CC[C@H](O[C@@H]6OC(C(=O)O)[C@@H](O)[C@@H](O[C@@H]7O[C@@H](CO)[C@@H](O)C7O)C6O[C@@H]6OC(CO)[C@H](O)[C@@H](O)C6O)C(C)(C)C5CC[C@@]4(C)[C@]3(C)[C@@H](O)[C@@H](O)[C@@]2(CO)[C@@H](O)[C@@H]1O (stereo partly shown) [AKOH] | no hemolytic activity | no anti-cancer activity | no effect |  |  |  |  |  |  |  |  |  |  |  |  |  |  | inhibiting cancer growth, cancer invasion, cell invasion or cancer cell invasion (cancer cells; listed as AKOH-Y): do not show the ability
2 | CC=C(C)C(=O)OCC1(C)C(O)CCC2(C)C1CCC1(C)C2CC=C2C3CC(C)(C)C(O)C(OC(=O)C(C)=CC)C3(CO)C(O)CC21C (stereo not shown) [Tig-Q] |  | have anti-cancer activities |  | 18 µg/mL | 18 µg/mL | 20 µg/mL | 15 µg/mL | 6 µg/mL | 24 µg/mL | 22 µg/mL | 13 µg/mL | 20 µg/mL | 10 µg/mL | 23 µg/mL | 29 µg/mL | 20 µg/mL | 9 µg/mL | ES2 cells attached to flasks compared to no drug controls (ES2 cells; 5 ug/ml, 5 hours): 80 ± 4%; unattached cells alive (ES2 cells; 5 ug/ml, trypan Blue exclusion, ES2 or Hey8A): over 90%; cells attached to flasks (ES2 cells; 10 ug/ml, ES2 or Hey8A): less than 40%; Hey8A cells attached to flasks compared to no drug controls (Hey8A cells): 60 ± 4%; inhibition of fibronectin secretion (Fibronectin): 20-40%
3 | CC1(C)CC2C3=CCC4C5(C)CCC(O)C(C)(CO)C5CCC4(C)C3(C)C(O)C(O)C2(CO)C(O)C1O (stereo not shown) [Compound E4AY2] | no hemolytic activity | no anti-cancer activity |  |  |  |  |  |  |  |  |  |  |  |  |  |  |  | 
4 | CC1(C)CC2C3=CCC4C5(C)CCC(O)C(C)(C)C5CCC4(C)C3(C)CC(O)C2(CO)C(O)C1O (stereo not shown) [Compound E5A] | no hemolytic activity | no anti-cancer activity | no effect |  |  |  |  |  |  |  |  |  |  |  |  |  |  | 
5 | CC1O[C@@H](OC2[C@H](OC3[C@H](O[C@H]4C(O[C@@H]5OC(CO)[C@H](O)[C@@H](O)C5O)[C@H](O[C@H]5CC[C@@]6(C)C(CC[C@]7(C)C6CC[C@]68O[C@H](O)[C@]9(C6CC(C)(C)[C@@H](O)[C@@H]9O)[C@H](O)C[C@]87C)C5(C)C)OC(C(=O)O)[C@H]4O)OC(CO)[C@H](O)[C@H]3O)OC(C)[C@H](O)[C@@H]2O)C(O)[C@@H](O)[C@H]1O (stereo partly shown) [AKOH-M10] |  |  | do not show the ability |  |  |  |  |  |  |  |  |  |  |  |  |  |  | 
6 | CC=C(C)C(=O)OCC1(C)C(OC(=O)C(C)=CC)CCC2(C)C1CCC1(C)C2CC=C2C3CC(C)(C)C(OC(=O)C(C)=CC)C(O)C3(CO)C(O)CC21C (stereo not shown) [Tig-U] |  |  |  | 19 µg/mL | 25 µg/mL | 24 µg/mL | 15 µg/mL | 10 µg/mL | 23 µg/mL | 26 µg/mL | 18 µg/mL | 17 µg/mL | 15 µg/mL | 27 µg/mL | 22 µg/mL | 23 µg/mL | 9 µg/mL | IC50 of ovary (ES2) (ES2): 17 µg/mL; IC50 of mouth (KB) (KB): 16 µg/mL
